Measurements published in paper PMC10046369, “Low-Affinity/High-Selectivity Dopamine Transport Inhibition Sufficient to Rescue Cognitive Functions in the Aging Rat” (Biomolecules, 2023).

Legend:
Assay in all cases: biochemical
Design in all cases: KINOMEscan competition binding panel, per cent of control
Settings in all cases: read-out: %Ctrl @ 2800nM
CSNK1G2 = CSNK1G2 (Homo sapiens, UniProt P78368)
Description: (§1) A panel of binding assays covering 450 human kinases and disease-relevant mutations was performed by DiscoverX (KINOMEscan®, Freemont, CA, USA) according to the standard and validated protocol defined by the contractor. […] Kinase binding assays This study was outsourced to DiscoverX (KINOMEscan®, Freemont, CA, USA) and is compliant with the corresponding project BUY004-01-p-00001. […] Results are reported as percent control (% Ctrl), where lower numbers indicate stronger hits in the matrix on the following page(s). %Ctrl calculation: ((test compound signal-positive control signal) / (negative control signal – positive control signal)) x 100.

SIK2 = SIK2 (Homo sapiens, UniProt Q9H0K1)
Description: as §1

QSK = biological target: T1, QSK (Homo sapiens, UniProt Q9Y2K2)
T1 construct: gene SIK3
Description: as §1

PHKG1 = PHKG1 (Homo sapiens, UniProt Q16816)
Description: as §1

PFTAIRE2 = biological target: T2, PFTAIRE2 (Homo sapiens, UniProt Q96Q40)
T2 construct: gene CDK15
Description: as §1

FAK = biological target: T3, FAK (Homo sapiens, UniProt Q05397)
T3 construct: gene PTK2
Description: as §1

BTK = BTK (Homo sapiens, UniProt Q06187)
Description: as §1

MELK = MELK (Homo sapiens, UniProt Q14680)
Description: as §1

[1] = biological target: T4, ABL1(H396P)-nonphosphorylated (Homo sapiens, UniProt P00519, H396P)
T4 construct: nonphosphorylated
Description: as §1

CDKL5 = CDKL5 (Homo sapiens, UniProt O76039)
Description: as §1

FGFR4 = FGFR4 (Homo sapiens, UniProt P22455)
Description: as §1

SYK = SYK (Homo sapiens, UniProt P43405)
Description: as §1

MAP4K5 = MAP4K5 (Homo sapiens, UniProt Q9Y4K4)
Description: as §1

ICK = biological target: T5, ICK (Homo sapiens, UniProt Q9UPZ9)
T5 construct: gene CILK1
Description: as §1

PDGFRB = PDGFRB (Homo sapiens, UniProt P09619)
Description: as §1

BLK = BLK (Homo sapiens, UniProt P51451)
Description: as §1

PYK2 = biological target: T6, PYK2 (Homo sapiens, UniProt Q14289)
T6 construct: gene PTK2B
Description: as §1

CAMKK2 = CAMKK2 (Homo sapiens, UniProt Q96RR4)
Description: as §1

PDPK1 = PDPK1 (Homo sapiens, UniProt O15530)
Description: as §1

RET(V804M) = RET(V804M) (Homo sapiens, UniProt P07949, V804M)
Description: as §1

FER = FER (Homo sapiens, UniProt P16591)
Description: as §1

NEK1 = NEK1 (Homo sapiens, UniProt Q96PY6)
Description: as §1

PIK3CA(I800L) = PIK3CA(I800L) (Homo sapiens, UniProt P42336, I800L)
Description: as §1

CSNK1G1 = CSNK1G1 (Homo sapiens, UniProt Q9HCP0)
Description: as §1

PIK3CA(E542K) = PIK3CA(E542K) (Homo sapiens, UniProt P42336, E542K)
Description: as §1

PIK3CA = PIK3CA (Homo sapiens, UniProt P42336)
Description: as §1

Chain of CAMKK2 (Q96RR4 whole entry): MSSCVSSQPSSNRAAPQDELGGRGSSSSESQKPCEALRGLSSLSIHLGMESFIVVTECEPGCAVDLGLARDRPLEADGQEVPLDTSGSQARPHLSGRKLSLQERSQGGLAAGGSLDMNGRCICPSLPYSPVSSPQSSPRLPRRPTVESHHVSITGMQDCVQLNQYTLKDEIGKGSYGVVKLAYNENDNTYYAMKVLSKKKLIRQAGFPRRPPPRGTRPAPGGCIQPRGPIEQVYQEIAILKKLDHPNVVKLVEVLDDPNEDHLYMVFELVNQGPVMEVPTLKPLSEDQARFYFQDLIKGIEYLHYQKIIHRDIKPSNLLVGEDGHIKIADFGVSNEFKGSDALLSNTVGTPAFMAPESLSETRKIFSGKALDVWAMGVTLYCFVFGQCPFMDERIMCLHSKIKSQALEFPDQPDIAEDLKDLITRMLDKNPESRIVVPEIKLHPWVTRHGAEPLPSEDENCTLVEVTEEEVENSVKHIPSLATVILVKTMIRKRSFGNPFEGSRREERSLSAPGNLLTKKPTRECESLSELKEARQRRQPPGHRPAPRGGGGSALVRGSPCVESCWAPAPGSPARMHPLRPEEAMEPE
Chain of SIK2 (Q9H0K1 whole entry): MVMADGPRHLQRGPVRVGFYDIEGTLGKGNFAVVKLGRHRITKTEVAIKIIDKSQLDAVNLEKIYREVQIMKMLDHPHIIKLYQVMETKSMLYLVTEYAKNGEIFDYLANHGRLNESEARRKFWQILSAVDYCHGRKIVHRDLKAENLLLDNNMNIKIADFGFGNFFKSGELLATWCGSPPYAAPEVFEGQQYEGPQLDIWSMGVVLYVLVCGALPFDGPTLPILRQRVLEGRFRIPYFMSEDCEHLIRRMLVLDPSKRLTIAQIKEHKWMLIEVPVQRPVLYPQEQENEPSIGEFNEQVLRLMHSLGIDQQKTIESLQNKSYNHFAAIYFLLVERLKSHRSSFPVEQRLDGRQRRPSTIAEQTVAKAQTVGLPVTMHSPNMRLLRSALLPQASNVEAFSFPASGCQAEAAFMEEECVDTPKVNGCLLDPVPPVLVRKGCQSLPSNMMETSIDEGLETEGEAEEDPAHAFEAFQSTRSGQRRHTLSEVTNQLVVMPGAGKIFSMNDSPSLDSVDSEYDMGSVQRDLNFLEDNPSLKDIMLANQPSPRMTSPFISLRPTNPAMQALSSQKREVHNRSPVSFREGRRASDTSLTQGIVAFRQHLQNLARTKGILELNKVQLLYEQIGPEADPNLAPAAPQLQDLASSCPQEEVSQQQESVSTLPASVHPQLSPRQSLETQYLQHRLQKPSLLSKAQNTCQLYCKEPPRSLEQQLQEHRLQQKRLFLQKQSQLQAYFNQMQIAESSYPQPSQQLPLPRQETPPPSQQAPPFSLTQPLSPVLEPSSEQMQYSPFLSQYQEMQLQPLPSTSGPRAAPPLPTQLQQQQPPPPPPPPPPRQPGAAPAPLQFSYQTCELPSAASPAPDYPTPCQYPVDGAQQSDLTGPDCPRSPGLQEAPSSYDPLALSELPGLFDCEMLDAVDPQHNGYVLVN
Chain of CSNK1G2 (P78368 whole entry): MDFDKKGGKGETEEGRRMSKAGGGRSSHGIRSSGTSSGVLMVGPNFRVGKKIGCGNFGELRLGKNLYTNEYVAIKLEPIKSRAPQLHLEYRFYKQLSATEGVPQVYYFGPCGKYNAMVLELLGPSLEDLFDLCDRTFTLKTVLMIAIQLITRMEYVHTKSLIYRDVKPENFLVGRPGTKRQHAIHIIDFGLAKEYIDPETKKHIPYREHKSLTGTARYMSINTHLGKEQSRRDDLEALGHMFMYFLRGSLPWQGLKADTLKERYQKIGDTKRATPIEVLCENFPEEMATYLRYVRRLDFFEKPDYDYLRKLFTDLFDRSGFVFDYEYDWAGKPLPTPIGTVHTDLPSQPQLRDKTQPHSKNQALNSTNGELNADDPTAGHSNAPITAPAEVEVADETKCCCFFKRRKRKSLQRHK
Chain of PIK3CA (P42336 whole entry): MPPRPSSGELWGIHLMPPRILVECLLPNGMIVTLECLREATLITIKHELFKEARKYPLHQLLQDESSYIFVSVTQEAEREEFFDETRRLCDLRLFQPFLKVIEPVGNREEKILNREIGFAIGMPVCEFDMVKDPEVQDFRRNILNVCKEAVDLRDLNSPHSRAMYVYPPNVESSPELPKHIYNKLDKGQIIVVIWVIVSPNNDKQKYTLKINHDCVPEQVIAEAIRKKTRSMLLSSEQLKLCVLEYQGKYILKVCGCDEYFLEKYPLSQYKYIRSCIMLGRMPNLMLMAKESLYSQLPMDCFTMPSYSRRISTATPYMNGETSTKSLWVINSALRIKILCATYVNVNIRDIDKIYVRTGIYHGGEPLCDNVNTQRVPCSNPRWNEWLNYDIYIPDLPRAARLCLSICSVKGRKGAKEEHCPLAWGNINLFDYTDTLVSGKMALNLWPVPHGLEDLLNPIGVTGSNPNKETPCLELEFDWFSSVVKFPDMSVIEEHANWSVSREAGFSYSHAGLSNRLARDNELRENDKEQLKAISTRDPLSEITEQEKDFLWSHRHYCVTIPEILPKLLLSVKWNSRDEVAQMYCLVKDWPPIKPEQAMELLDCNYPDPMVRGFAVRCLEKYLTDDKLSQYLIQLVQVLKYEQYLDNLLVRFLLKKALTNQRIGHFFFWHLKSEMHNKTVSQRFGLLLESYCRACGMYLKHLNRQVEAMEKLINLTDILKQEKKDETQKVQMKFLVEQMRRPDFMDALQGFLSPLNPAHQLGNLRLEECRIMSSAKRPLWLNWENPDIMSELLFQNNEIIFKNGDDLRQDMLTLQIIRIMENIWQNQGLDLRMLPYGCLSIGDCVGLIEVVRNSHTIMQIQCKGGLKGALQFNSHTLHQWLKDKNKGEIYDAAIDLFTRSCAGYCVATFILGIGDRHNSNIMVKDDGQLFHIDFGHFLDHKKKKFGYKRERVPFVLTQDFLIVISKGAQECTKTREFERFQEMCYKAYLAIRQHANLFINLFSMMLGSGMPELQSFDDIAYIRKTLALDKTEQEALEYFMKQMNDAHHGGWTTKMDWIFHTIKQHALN
Chain of PIK3CA(I800L) (P42336 whole entry I800L): as the sequence (P42336 whole entry) above, with I800L counted along it
Chain of BLK (P51451 whole entry): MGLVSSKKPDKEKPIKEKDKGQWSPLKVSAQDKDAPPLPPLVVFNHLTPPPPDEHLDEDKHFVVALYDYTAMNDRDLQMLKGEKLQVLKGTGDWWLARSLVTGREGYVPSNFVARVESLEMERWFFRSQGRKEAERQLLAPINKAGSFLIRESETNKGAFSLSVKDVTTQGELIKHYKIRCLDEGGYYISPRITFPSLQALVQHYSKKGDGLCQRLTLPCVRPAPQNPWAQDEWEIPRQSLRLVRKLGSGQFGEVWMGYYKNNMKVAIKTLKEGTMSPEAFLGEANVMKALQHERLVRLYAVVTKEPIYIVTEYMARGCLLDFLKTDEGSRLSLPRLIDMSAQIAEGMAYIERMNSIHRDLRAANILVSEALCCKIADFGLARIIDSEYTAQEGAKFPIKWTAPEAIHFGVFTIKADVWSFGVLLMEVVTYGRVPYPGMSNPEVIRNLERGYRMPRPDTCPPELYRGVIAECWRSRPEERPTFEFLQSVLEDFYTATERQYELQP
Chain of PDGFRB (P09619 whole entry): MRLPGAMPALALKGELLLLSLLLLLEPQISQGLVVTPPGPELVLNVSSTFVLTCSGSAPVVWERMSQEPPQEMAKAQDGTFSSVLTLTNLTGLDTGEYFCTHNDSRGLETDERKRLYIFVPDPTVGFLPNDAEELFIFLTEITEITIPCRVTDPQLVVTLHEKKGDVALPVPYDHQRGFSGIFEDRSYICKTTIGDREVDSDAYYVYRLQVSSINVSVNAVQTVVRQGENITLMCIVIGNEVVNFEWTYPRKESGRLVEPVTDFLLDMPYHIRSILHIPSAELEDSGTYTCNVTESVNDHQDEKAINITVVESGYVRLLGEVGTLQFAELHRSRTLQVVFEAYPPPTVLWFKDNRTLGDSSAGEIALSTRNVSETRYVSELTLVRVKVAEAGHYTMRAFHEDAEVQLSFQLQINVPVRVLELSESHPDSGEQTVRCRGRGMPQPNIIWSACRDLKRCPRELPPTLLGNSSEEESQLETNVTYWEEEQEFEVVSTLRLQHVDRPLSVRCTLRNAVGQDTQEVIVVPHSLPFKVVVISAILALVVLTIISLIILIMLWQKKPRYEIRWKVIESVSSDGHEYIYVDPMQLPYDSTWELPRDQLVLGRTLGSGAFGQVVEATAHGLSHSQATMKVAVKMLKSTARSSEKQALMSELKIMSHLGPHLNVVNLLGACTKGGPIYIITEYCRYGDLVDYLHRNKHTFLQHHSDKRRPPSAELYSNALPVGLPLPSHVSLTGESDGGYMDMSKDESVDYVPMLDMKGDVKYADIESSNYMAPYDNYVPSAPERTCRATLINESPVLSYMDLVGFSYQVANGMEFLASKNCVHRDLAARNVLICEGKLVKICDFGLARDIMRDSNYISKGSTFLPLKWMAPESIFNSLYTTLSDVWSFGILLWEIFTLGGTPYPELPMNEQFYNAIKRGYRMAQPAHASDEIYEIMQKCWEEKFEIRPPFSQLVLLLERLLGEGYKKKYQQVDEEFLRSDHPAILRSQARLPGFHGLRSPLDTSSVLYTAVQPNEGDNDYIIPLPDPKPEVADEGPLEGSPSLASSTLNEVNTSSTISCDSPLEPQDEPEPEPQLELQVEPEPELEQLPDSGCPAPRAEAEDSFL
Chain of PHKG1 (Q16816 whole entry): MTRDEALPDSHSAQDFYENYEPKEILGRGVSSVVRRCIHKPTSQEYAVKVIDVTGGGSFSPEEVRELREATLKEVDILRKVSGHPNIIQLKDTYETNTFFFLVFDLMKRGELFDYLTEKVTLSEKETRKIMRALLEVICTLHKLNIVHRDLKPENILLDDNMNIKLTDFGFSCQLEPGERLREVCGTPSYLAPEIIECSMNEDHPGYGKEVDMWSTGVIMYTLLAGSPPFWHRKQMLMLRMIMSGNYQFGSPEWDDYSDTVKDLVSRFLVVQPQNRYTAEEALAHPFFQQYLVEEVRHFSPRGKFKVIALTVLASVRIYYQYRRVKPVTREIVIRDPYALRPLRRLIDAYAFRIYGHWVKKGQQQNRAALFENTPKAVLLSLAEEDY

[O-][S@@+](Cc1cncs1)C(c1ccccc1)c1ccccc1 [S-CE-123, (S)-5-((Benzhydrylsulfinyl)Methyl)Thiazole]
remaining binding at 2.8 µM (CSNK1G2): 94% | remaining binding at 2.8 µM (SIK2): 100% | remaining binding at 2.8 µM (QSK): 93% | remaining binding at 2.8 µM (PHKG1): 100% | remaining binding at 2.8 µM (PFTAIRE2): 100% | remaining binding at 2.8 µM (FAK): 100% | remaining binding at 2.8 µM (BTK): 100% | remaining binding at 2.8 µM (MELK): 67% | remaining binding at 2.8 µM [1]: 86% | remaining binding at 2.8 µM (CDKL5): 97% | remaining binding at 2.8 µM (FGFR4): 100% | remaining binding at 2.8 µM (SYK): 100% | remaining binding at 2.8 µM (MAP4K5): 95% | remaining binding at 2.8 µM (ICK): 91% | remaining binding at 2.8 µM (PDGFRB): 99% | remaining binding at 2.8 µM (BLK): 90% | remaining binding at 2.8 µM (PYK2): 100% | remaining binding at 2.8 µM (CAMKK2): 94% | remaining binding at 2.8 µM (PDPK1): 95% | remaining binding at 2.8 µM (RET(V804M)): 95% | remaining binding at 2.8 µM (FER): 100% | remaining binding at 2.8 µM (NEK1): 90% | remaining binding at 2.8 µM (PIK3CA(I800L)): 84% | remaining binding at 2.8 µM (CSNK1G1): 96% | remaining binding at 2.8 µM (PIK3CA(E542K)): 88% | remaining binding at 2.8 µM (PIK3CA): 80%
